In ChEMBL document CHEMBL1201862, “PubChem BioAssay data set” (2004):
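Values below derive from 48-hour exposures of cells grown in 96-well plates, with endpoints linearly interpolated between the two concentrations bracketing the appropriate inhibition level. GI50 is the concentration that inhibits growth by half.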 The source made the active and inactive calls. Cut-off read from the data, not from the text of the source: active = GI50 up to about 1.1 µM and inactive = higher.

Assays:
Assay in all cases: growth of human tumour cells (NCI), 48 h
ACHN = test system: ACHN
CAKI-1 = test system: CAKI-1
DLD-1 = test system: DLD-1
EKVX = test system: EKVX
HCC 2998 = test system: HCC 2998
HCT-15 = test system: HCT-15
HOP-62 = test system: HOP-62
HT-29 = test system: HT-29
K562 = test system: K562
LOX IMVI = test system: LOX IMVI
OVCAR-3 = test system: OVCAR-3
SK-MEL-5 = test system: SK-MEL-5
SNB-75 = test system: SNB-75

Row | Structure (SMILES) | GI50 (ACHN) | GI50 (CAKI-1) | GI50 (DLD-1) | GI50 (EKVX) | GI50 (HCC 2998) | GI50 (HCT-15) [µM] | GI50 (HOP-62) | GI50 (HT-29) | GI50 (K562) | GI50 (LOX IMVI) | GI50 (OVCAR-3) | GI50 (SK-MEL-5) | GI50 (SNB-75)
1 | COc1cc2c(cc1OC)[C@@H](C(O)c1ccccc1)NCC2 (stereo partly specified) | > 100 µM (inactive) | > 100 µM (inactive) | > 100 µM (inactive) | > 100 µM (inactive) | > 100 µM (inactive) | > 100 | > 100 µM (inactive) | > 100 µM (inactive) | > 100 µM (inactive) | > 100 µM (inactive) | > 100 µM (inactive) | > 100 µM (inactive) | 54.6 µM (inactive)
2 | COc1ccc(-c2onc(-c3c(C)cc(C)cc3C)c2C2=NCCN2)cc1 | 86.3 µM (inactive) | 21.1 µM (inactive) | 74 µM (inactive) | 70 µM (inactive) | 44.1 µM (inactive) | 40.3 | 59.2 µM (inactive) | 25.5 µM (inactive) | 28.2 µM (inactive) | 30.1 µM (inactive) | > 10 µM (inactive) | 17.2 µM (inactive) | 84.9 µM (inactive)
